Assay results: patent US20120010075A1 (priority 2009, published 2012)
Where two headings read alike, the source gives them in different places.

Columns and labels:
[1] = tested on: Leptosphaeria nodorum (LEPTNO); test: In vitro fungitoxicity of hydrazones with and without copper towards Leptosphaeria nodorum (Example 26); assay type: cell-based; conditions: 72 h at 25° C.; for inhibition of growth at 0.05 µg/mL: Parastagonospora nodorum, 72 h, copper-minus medium, read-out: LEPTNO % Inhn. Minus Copper Observed
Phytophthora infestans = assay type: in vivo, Phytophthora infestans on tomato; conditions: applied 24 h before inoculation, assessed 7 days after inoculation
[2] = test compound Concn. 0.05 μg/mL
[3] = copper-plus medium (CuCl2 10 μM), test compound Concn. 0.05 μg/mL
[4] = hydrazone 50 ppm with 50 μM CuCl2.2H2O, tomato late blight
[5] = compound 0.05 μg/mL, copper-plus medium (CuCl2.2H2O)
[6] = hydrazone 50 ppm + 50 μM CuCl2.2H2O, tomato

O=C(N/N=C/c1cc(Cl)cc(Cl)c1O)c1ccc(Cl)cc1O [Example 474]
inhibition of growth at 0.05 µg/mL [1, 2]: 39.2%
LEPTNO % Inhn. Plus Copper Observed [1, 3]: 97.6%
melting point: 276 to 279 °C
TLB % Control (Phytophthora infestans; [4]): 100.0%

O=C(N/N=C/c1cc(Cl)cc(Br)c1O)c1ccccc1C(F)(F)F [Example 418]
inhibition of growth at 0.05 µg/mL [1, 2]: 0%
LEPTNO % Inhn. Plus Copper Observed [1, 3]: 97.3%
melting point: 266 to 274 °C
TLB % Control (Phytophthora infestans; [4]): 93.0%

C/C(=N\NC(=O)c1ccccc1C)c1cc(Br)cc(Br)c1O [Example 540]
inhibition of growth at 0.05 µg/mL [1, 2]: 0%
LEPTNO % Inhn. Plus Copper Observed [1, 3]: 97.5%
melting point: 221 to 222 °C
TLB % Control (Phytophthora infestans; [4]): 95.0%

O=C(N/N=C(\CCc1ccccc1)c1ccccc1O)c1c(Cl)cccc1Cl [Example 45]
inhibition of growth at 0.05 µg/mL ([1]; compound 0.05 μg/mL): 0%
LEPTNO % Inhn. Plus Copper Observed [1, 5]: 96.2%
melting point: 204 to 208 °C
TLB % Control (Phytophthora infestans; [6]): 49.0%

C/C(=N\NC(=O)c1ccc(C(F)(F)F)cc1)c1cccc(Cl)c1O [Example 501]
inhibition of growth at 0.05 µg/mL [1, 2]: 0.5%
LEPTNO % Inhn. Plus Copper Observed [1, 3]: 98.0%
melting point: 250 to 256 °C
TLB % Control (Phytophthora infestans; [4]): 89.0%

COc1ccc(O)c(C(=O)N/N=C/c2cc(Cl)cc(Cl)c2O)c1 [Example 487]
inhibition of growth at 0.05 µg/mL [1, 2]: 11.2%
LEPTNO % Inhn. Plus Copper Observed [1, 3]: 93.9%
melting point: 250 to 252 °C
TLB % Control (Phytophthora infestans; [4]): 100.0%

COc1ccccc1C(=O)N/N=C(\C)c1cc(Cl)cc(Cl)c1O [Example 141]
inhibition of growth at 0.05 µg/mL ([1]; compound 0.05 μg/mL): 1.5%
LEPTNO % Inhn. Plus Copper Observed [1, 5]: 96.2%
melting point: 307 to 310 °C
TLB % Control (Phytophthora infestans; [6]): 52.0%

O=C(N/N=C/c1cc(Cl)cc(Cl)c1O)c1cccc([N+](=O)[O-])c1 [Example 248]
inhibition of growth at 0.05 µg/mL ([1]; compound 0.05 μg/mL): 12.4%
LEPTNO % Inhn. Plus Copper Observed [1, 5]: 96.3%
melting point: 234 to 237 °C
TLB % Control (Phytophthora infestans; [6]): 98.0%

Cc1ccc(C(=O)N/N=C/c2cc(Cl)cc(Cl)c2O)c(C)c1 [Example 27]
inhibition of growth at 0.05 µg/mL ([1]; compound 0.05 μg/mL): 16.5%
LEPTNO % Inhn. Plus Copper Observed [1, 5]: 97.9%
melting point: 246 to 247 °C
TLB % Control (Phytophthora infestans; [6]): 43.3%

O=C(N/N=C/c1cccc(C(F)(F)F)c1O)c1cccc(F)c1 [Example 345]
inhibition of growth at 0.05 µg/mL [1, 2]: 18.8%
LEPTNO % Inhn. Plus Copper Observed [1, 3]: 97.9%
melting point: 176 to 180 °C
TLB % Control (Phytophthora infestans; [4]): 97.0%

C/C(=N\NC(=O)c1ccc(Br)cc1)c1cc(Br)ccc1O [Example 517]
inhibition of growth at 0.05 µg/mL [1, 2]: 0%
LEPTNO % Inhn. Plus Copper Observed [1, 3]: 96.7%
melting point: 270 to 275 °C
TLB % Control (Phytophthora infestans; [4]): 56.0%

C/C(=N\NC(=O)c1ccc(Cl)cc1)c1cc(Br)cc(Br)c1O [Example 545]
inhibition of growth at 0.05 µg/mL [1, 2]: 19.6%
LEPTNO % Inhn. Plus Copper Observed [1, 3]: 97.9%
melting point: 255 to 258 °C
TLB % Control (Phytophthora infestans; [4]): 95.0%

Cc1ccc(C(=O)N/N=C/c2cccc(Cl)c2O)c(O)c1 [Example 433]
inhibition of growth at 0.05 µg/mL [1, 2]: 10.8%
LEPTNO % Inhn. Plus Copper Observed [1, 3]: 97.8%
melting point: 258 to 266 °C
TLB % Control (Phytophthora infestans; [4]): 100.0%

C/C(=N\NC(=O)c1ccccc1Cl)c1cc(C)ccc1O [Example 315]
inhibition of growth at 0.05 µg/mL [1, 2]: 2.7%
LEPTNO % Inhn. Plus Copper Observed [1, 3]: 95.8%
melting point: 154 to 158 °C
TLB % Control (Phytophthora infestans; [4]): 18.0%

C/C(=N\NC(=O)c1cc2ccccc2cc1O)c1cc(Cl)cc(Cl)c1O [Example 564]
inhibition of growth at 0.05 µg/mL [1, 2]: 17.4%
LEPTNO % Inhn. Plus Copper Observed [1, 3]: 94.2%
melting point: 312 to 315 °C
TLB % Control (Phytophthora infestans; [4]): 1.3%

C/C(=N\NC(=O)c1cccc(C)c1)c1cc(Cl)ccc1O [Example 506]
inhibition of growth at 0.05 µg/mL [1, 2]: 2.7%
LEPTNO % Inhn. Plus Copper Observed [1, 3]: 97.5%
melting point: 222 to 228 °C
TLB % Control (Phytophthora infestans; [4]): 44.0%

Cc1cc(C)cc(C(=O)N/N=C/c2cc(Br)ccc2O)c1 [Example 107]
inhibition of growth at 0.05 µg/mL ([1]; compound 0.05 μg/mL): 0%
LEPTNO % Inhn. Plus Copper Observed [1, 5]: 97.2%
melting point: 191 to 195 °C
TLB % Control (Phytophthora infestans; [6]): 74.6%

COc1cc(O)c(/C(C)=N/NC(=O)c2cccc(Cl)c2)c(OC)c1 [Example 567]
inhibition of growth at 0.05 µg/mL [1, 2]: 2.5%
LEPTNO % Inhn. Plus Copper Observed [1, 3]: 42.3%
melting point: 206 to 215 °C
TLB % Control (Phytophthora infestans; [4]): 14.0%

O=C(N/N=C/c1cc(C(F)(F)F)ccc1O)c1ccccc1C(F)(F)F [Example 444]
inhibition of growth at 0.05 µg/mL [1, 2]: 0%
LEPTNO % Inhn. Plus Copper Observed [1, 3]: 100.0%
melting point: 174 to 176 °C
TLB % Control (Phytophthora infestans; [4]): 91.0%

O=C(N/N=C/c1c(O)cccc1Cl)c1ccc(F)cc1 [Example 401]
inhibition of growth at 0.05 µg/mL [1, 2]: 0%
LEPTNO % Inhn. Plus Copper Observed [1, 3]: 94.8%
melting point: 266 to 268 °C
TLB % Control (Phytophthora infestans; [4]): 98.0%
